Here are results for 31 compounds from ChEMBL document CHEMBL6182842, “Progress in the development of macrophage migration inhibitory factor small-molecule inhibitors” (Eur J Med Chem, 2025).

In assay [1] the target is T1, Macrophage migration inhibitory factor (Homo sapiens, UniProt P14174).
T1 sequence (P14174 whole entry): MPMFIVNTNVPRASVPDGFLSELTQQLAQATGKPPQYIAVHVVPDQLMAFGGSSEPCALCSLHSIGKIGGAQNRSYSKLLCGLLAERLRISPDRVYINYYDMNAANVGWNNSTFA
As to the kind of experiment: Inhibition of human recombinant MIF tautomerase activity.

Assay [2] has as its target T1, Macrophage migration inhibitory factor. As to the kind of experiment: Inhibition of human recombinant MIF incubated for 30 mins by microplate reader assay.
The target of assay [3] is T2, D-dopachrome decarboxylase (Homo sapiens, UniProt P30046). As to the kind of experiment: Inhibition of wild type human DDT tautomerase activity at 100 uM relative to control.
T2 sequence (P30046 whole entry): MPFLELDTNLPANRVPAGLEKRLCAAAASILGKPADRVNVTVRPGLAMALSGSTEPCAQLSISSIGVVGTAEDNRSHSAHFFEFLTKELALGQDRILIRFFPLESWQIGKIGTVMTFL
The target in assay [4] is T1, Macrophage migration inhibitory factor. As to the kind of experiment: Inhibition of MIF (unknown origin).
Assay [5] shares this target. As to the kind of experiment: Inhibition of human full length MIF extracted from Escherichia coli BL21 (DE3) by UV absorbance based analysis.
For assay [6] the target is unchanged. As to the kind of experiment: Inhibition of human recombinant MIF extracted from Escherichia coli BL21 (DE3).
Assay [7] has the same target. As to the kind of experiment: Binding affinity to human recombinant MIF extracted from Escherichia coli BL21 (DE3) assessed as inhibition constant.
For assay [8], the target named is T3, Macrophage migration inhibitory factor (Homo sapiens) (UniProt P14174).
T3 sequence (whole entry): T1 sequence (P14174 whole entry)
As to the kind of experiment: Potency index, ratio of ISO-1 IC50 to test compound IC50 for inhibition of human recombinant MIF.

The target in assay [9] is T2, D-dopachrome decarboxylase. As to the kind of experiment: Binding affinity to human DDT extracted from Escherichia coli assessed as inhibition constant.
The species entered for a further assay is Homo sapiens. As to the kind of experiment: Selectivity ratio of Ki for wild type human DDT to Ki for wild type human MIF.
Assay [10] deals with T1, Macrophage migration inhibitory factor. As to the kind of experiment: Binding affinity to wild type human MIF extracted from Escherichia coli BL 21 (DE3) assessed as inhibition constant.
Assay [11] has as its target T2, D-dopachrome decarboxylase. As to the kind of experiment: Inhibition of human DDT extracted from Escherichia coli.

Bounds are passed on as bounds.

With `O=C1/C(=C/c2ccncc2)CCc2ccccc21`, the IC50 in [1] amounted to 21 µM.

On to `CC(=O)NS(=O)(=O)c1ccc(NC(=O)CC(C)(C)C)cc1`, for which the IC50 in [2] was determined as 1.22 µM.

In assay [3], `O=C(O)c1ccc(C(=O)O)cc1` had an inhibition greater than 75%.

The compound `Nc1ccccc1NC(=O)c1ccc(NC(=O)Cc2ccc(N3Cc4ccc(O)cc4OC3=O)cc2)cc1` displayed an IC50 in assay [4] of 810 nM.

Turning to `COc1ccc(C(=O)Nc2nnc(-c3ccco3)o2)c(OC)c1`, the IC50 in [5] is 6.87 µM.

Take `O=C(CC1(O)C(=O)N(Cc2ccccc2Cl)c2ccccc21)C1Cc2ccccc2OC1=O` (centres undefined): in assay [2], the half-inhibitory concentration (IC50) was 7.55 µM.

`O=C(O)c1cccnc1` came in with an inhibition in [3] greater than 100%.

For the compound `O=c1c(-c2c(O)cc(O)c3c(=O)cc(-c4ccc(O)cc4)oc23)c(-c2ccc(O)cc2)oc2cc(O)cc(O)c12`, the IC50 in assay [6] turned out to be 13.3 µM. Also, the Ki in [7] is 10.1 µM.

Compound `c1ccc(-c2ccncc2)cc1` gave an inhibition in assay [3] greater than 100%.

Take `O=c1c(O)c(-c2ccc(O)cc2O)oc2cc(O)cc(O)c12` [MORIN]: the Ratio IC50 in [8] stood at 6.3. Moreover, the IC50 in assay [6] worked out at 11 µM. Also, the inhibition constant (Ki) in assay [7] worked out at 8.95 µM.

In the case of `COC(=O)c1ccc(O)c2nc3c(C=O)c(O)cc(O)c3nc12` [LOMOFUNGIN], in [4], half-maximal inhibition (IC50) was put at 470 nM.

Regarding `O=c1c(O)c(-c2ccc(O)cc2)oc2cc(O)cc(O)c12` [KAEMPFEROL], in [8], the Ratio IC50 came to 17.2. Further, the 50% inhibitory concentration (IC50) in [6] is 189 µM.

For `Cn1cccc1/C=C1\CCc2ccccc2C1=O`, the half-inhibitory concentration (IC50) in assay [1] was 23.8 µM.

Turning to `O=C(O)c1ccccn1`, in [3], the inhibition was greater than 75%.

As to `COc1cc(/C=C2\CCc3cc(O)ccc3C2=O)ccc1O`, the IC50 in [1] is 4.31 µM.

In the case of `O=C1/C(=C/c2ccc3cc[nH]c3c2)CCc2ccccc21`, the IC50 in [1] stood at 58.8 µM.

Regarding `O=C(O)c1cccc(-c2cc(C(=O)O)ncc2C(=O)O)c1`, the Ki in assay [9] was 33 µM.

In the case of `C[C@@H]1O[C@@H](O[C@H]2[C@H](Oc3cc(O)c4c(c3)O[C@@H](c3ccc(O)cc3)CC4=O)O[C@H](CO)[C@@H](O)[C@@H]2O)[C@H](O)[C@H](O)[C@H]1O`, the Ratio IC50 in assay [8] came out at 13.3. In addition, the IC50 in [6] amounted to 51.4 µM. Also, in assay [7], the Ki was found to be 43.5 µM.

In assay [5], `Cc1cc(C(c2ccccn2)N2CCOCC2)c(NC(=O)c2ccco2)s1` (centres undefined) came in with an IC50 of 6.44 µM.

With `CCC(CC)c1nnc(NC(=O)Oc2ccccc2)s1`, in assay [2], the IC50 worked out at 12 µM.

`O=C1/C(=C/c2ccccc2)CCCc2ccccc21`: in [1], the IC50 is 84 µM.

With `COc1ccccc1/C=C1\COc2ccccc2C1=O`, in assay [1], the IC50 was found to be 4.31 µM.

In the case of `O=C1/C(=C/c2ccccc2)CCc2ccccc21`, in [1], the IC50 amounted to 127 µM.

Consider `O=C(O)c1ccc(C(=O)O)nc1` [PYRIDINE-2,5-DICARBOXYLIC ACID], for which, in the assay listed under Homo sapiens, the Ratio Ki worked out at 79. Further, the inhibition in assay [3] was less than 25%. Besides, the inhibition constant (Ki) in assay [10] was determined as 17.2 µM.

With `O=C1/C(=C/c2cccnc2)CCc2ccccc21`, in [1], the IC50 stood at 20.3 µM.

Compound `Cc1cc(-c2ccccc2)ncn1` registered an IC50 in assay [11] greater than 500 µM.

`O=C1/C(=C/c2ccco2)CCc2ccccc21`: the IC50 in assay [1] worked out at 57.7 µM.

Consider `O=c1oc2ccc(F)cc2cc1-c1nc(-c2cccs2)no1`, for which the IC50 in assay [2] was determined as 7.57 µM.

For the compound `O=C(CSc1cc(-c2ccccc2)ncn1)c1ccc(O)cc1O`, in assay [2], the IC50 is 9.49 µM.

For `Cc1ccc(/C=C2\CCc3ccccc3C2=O)cc1`, the IC50 in assay [1] is 16.5 µM.

`Cc1c(C(=O)c2ccc(Cl)cc2)oc2cc(N)ccc12`: in assay [2], the IC50 stood at 14 µM.

As usually defined, the IC50 is the concentration that gives 50% inhibition. Usually inhibition stands for the percentage by which the read-out fell short of the control. Low readings indicate a weak effect, high ones a strong effect. Broadly, the Ki is the equilibrium dissociation constant of an inhibitor or competing ligand from its target.
